Here are results for ten molecules from patent US20260042764A1, “COMPOSITIONS AND METHODS FOR INHIBITION OF KRAS” (TheRas, Inc., priority 2022, published 2026).

For assay [1], the target named is T1, Avi-KRAS G12D (1-169) GppNHp/RAF1 RBD-3xFLAG (52-151) (Homo sapiens, UniProt P01116, G12D).
T1 construct: Avi-KRAS G12D (1-169)
As to the kind of experiment: Raf1-KRAS G12D-GppNHP disruption HTRF assay (Biological Example 1). It is filed as binding. The following applies: KRAS G12D-GppNHp/RAF1 RBD HTRF. In outline: (§1)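 Compound disruption of KRAS-GppNHp/RAF1 RBD binding read by HTRF after two sequential 1 h room-temperature incubations (protein mix, then detection reagents), shaken at 700 rpm. Buffer Tris pH 7.5 with MgCl2, BSA, Tween and 10% DMSO; results given as percent activity relative to DMSO (100%).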

Assay [2] has as its target T2, Avi-KRAS G12R (1-169) GppNHp/RAF1 RBD-3xFLAG (52-151) (Homo sapiens, UniProt P01116, G12R).
T2 construct: Avi-KRAS G12R (1-169)
As to the kind of experiment: Raf1-KRAS G12R-GppNHP disruption HTRF assay (Biological Example 1). It is filed as binding. The following applies: KRAS G12R-GppNHp/RAF1 RBD HTRF. Summed up: as §1

Assay [3] deals with T3, Avi-KRAS G12V (1-169) GppNHp/RAF1 RBD-3xFLAG (52-151) (Homo sapiens, UniProt P01116, G12V).
T3 construct: Avi-KRAS G12V (1-169)
In words: Raf1-KRAS G12V-GppNHP disruption HTRF assay (Biological Example 1). It is filed as binding. The following applies: KRAS G12V-GppNHp/RAF1 RBD HTRF. In outline:
as §1

Assay [4] addresses T4, Avi-KRAS WT (1-169) GppNHp/RAF1 RBD-3xFLAG (52-151) (Homo sapiens, UniProt P01116).
T4 construct: Avi-KRAS WT (1-169)
As to the kind of experiment: Raf1-KRAS WT-GppNHP disruption HTRF assay (Biological Example 1). It is filed as binding. The following applies: KRAS WT-GppNHp/RAF1 RBD HTRF. Summed up:
as §1

The next assay relates to GP2d cells (KRAS G12D). As to the kind of experiment: Cell-based pERK HTRF assay in GP2d cell (Biological Example 2). The following applies: GP2d, GP2d (KRAS G12D) cells, pERK HTRF. Summed up: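 Treatment with test compounds lasted one hour in DMEM containing 10% FBS, with DMSO held at 0.25%. Dilution series: 9 points, half-log spacing, highest 1 μM or 100 nM. Lysates were incubated 4–24 h at room temperature with antibody mix, then HTRF was read at 320 nm excitation.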

The next assay concerns SW620 cells (KRAS G12V). As to the kind of experiment: Cell-based pERK HTRF assay in SW620 cell (Biological Example 4). The following applies: Homo sapiens, SW-620, SW620 (KRAS G12V) cells, pERK HTRF. In outline:
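SW620 (KRAS G12V) cells seeded at 3×10^4/well in RPMI, 10% FBS, then treated next day for 4 h with a 9-point half-log series from 1 μM top (0.25% DMSO). Lysates analyzed for pERK by HTRF (Eu cryptate/d2 antibodies, 4–24 h at room temperature), excitation 320 nm, emission 615 nm.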

A value given as a limit tells only on which side of the number the result lay.

T2 sequence (P01116 1-169 isoform P01116-2 G12R): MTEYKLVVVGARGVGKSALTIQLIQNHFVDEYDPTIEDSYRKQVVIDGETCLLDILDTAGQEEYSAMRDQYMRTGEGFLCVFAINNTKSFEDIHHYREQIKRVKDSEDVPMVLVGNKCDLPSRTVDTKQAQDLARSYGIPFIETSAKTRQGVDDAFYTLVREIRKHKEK
T1 sequence (P01116 1-169 isoform P01116-2 G12D): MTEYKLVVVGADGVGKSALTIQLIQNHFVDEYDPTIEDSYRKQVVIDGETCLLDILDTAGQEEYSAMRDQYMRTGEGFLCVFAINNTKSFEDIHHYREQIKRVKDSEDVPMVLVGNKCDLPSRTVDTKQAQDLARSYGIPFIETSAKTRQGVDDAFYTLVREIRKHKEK
T4 sequence (P01116 1-169 isoform P01116-2): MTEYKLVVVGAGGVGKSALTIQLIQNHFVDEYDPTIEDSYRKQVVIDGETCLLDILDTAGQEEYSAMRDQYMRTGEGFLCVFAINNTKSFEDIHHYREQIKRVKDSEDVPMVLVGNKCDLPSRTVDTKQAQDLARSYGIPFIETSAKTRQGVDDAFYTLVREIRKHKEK
T3 sequence (P01116 1-169 isoform P01116-2 G12V): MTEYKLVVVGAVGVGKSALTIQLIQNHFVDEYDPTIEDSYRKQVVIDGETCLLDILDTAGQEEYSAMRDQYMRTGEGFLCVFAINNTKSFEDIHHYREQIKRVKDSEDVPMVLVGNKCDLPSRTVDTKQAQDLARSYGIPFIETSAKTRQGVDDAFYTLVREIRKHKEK

With `CCN(c1nc(OC[C@@]23CCCN2C[C@H](F)C3)nc2c(F)c(-c3ccc(F)c4sc(N)c(C#N)c34)c(C(F)(F)F)cc12)[C@H]1CC(=O)N(C(C)C)C1` [Compound 528], the IC50 in assay [1] is 1000 to 10000 nM; in assay [2] it was 1000 to 10000 nM; in assay [3], 1000 to 10000 nM; in assay [4] it was 1000 to 10000 nM; in the assay on GP2d cells (KRAS G12D) it was < 100 nM; with SW620 cells (KRAS G12V) it was 100 to 1000 nM.

`N#Cc1c(N)sc2c(F)ccc(-c3c(C(F)(F)F)cc4c(N5CC6OCC5C6F)nc(OC[C@@]56CCCN5C[C@H](F)C6)nc4c3F)c12` (stereo partly drawn) [Compound 531]: the IC50 was 100 to 1000 nM in assay [1]; 100 to 1000 nM in assay [2]; 100 to 1000 nM in assay [3]; 100 to 1000 nM in assay [4]; < 100 nM in the assay on GP2d cells (KRAS G12D); < 100 nM in the assay on SW620 cells (KRAS G12V).

`N#Cc1c(N)sc2c(F)ccc(-c3c(C(F)(F)F)cc4c(N5C[C@@H]6[C@H]5CCN6C(=O)C5CC5)nc(OC[C@@]56CCCN5C[C@H](F)C6)nc4c3F)c12` [Compound 535]: the IC50 is 1000 to 10000 nM in assay [1]; 1000 to 10000 nM in assay [2]; 1000 to 10000 nM in assay [3]; 1000 to 10000 nM in assay [4]; < 100 nM in the assay on GP2d cells (KRAS G12D); < 100 nM in the assay on SW620 cells (KRAS G12V).

In the case of `CC(C)C(=O)N1CC[C@@H]2[C@H]1CN2c1nc(OC[C@@]23CCCN2C[C@H](F)C3)nc2c(F)c(-c3ccc(F)c4sc(N)c(C#N)c34)c(C(F)(F)F)cc12` [Compound 536], the IC50 in assay [1] was 1000 to 10000 nM; in assay [2], 1000 to 10000 nM; in assay [3], 1000 to 10000 nM; in assay [4], 1000 to 10000 nM; in the assay on GP2d cells (KRAS G12D) it was < 100 nM; in the assay with SW620 cells (KRAS G12V), < 100 nM.

Take `CCN(c1nc(OC[C@@]23CCCN2C[C@H](F)C3)nc2c(F)c(-c3ccc(F)c4sc(N)c(C#N)c34)c(C(F)(F)F)cc12)[C@H]1CCN(C(=O)N2CCCC2)C1` [Compound 542]: the IC50 (in assay [1]; in assay [2]; in assay [3]; in assay [4]; in the assay with GP2d cells (KRAS G12D); with SW620 cells (KRAS G12V)) was < 100 nM in each case.

In the case of `CCN(c1nc(OC[C@@]23CCCN2C[C@H](F)C3)nc2c(F)c(-c3ccc(F)c4sc(N)c(C#N)c34)c(C(F)(F)F)cc12)[C@H]1CCN(C(=O)C2CC2(F)F)C1` (stereo partly drawn) [Compound 548], the IC50 (in assay [1]; in assay [2]; in assay [3]; in assay [4]; in the assay with GP2d cells (KRAS G12D); in the assay on SW620 cells (KRAS G12V)) was < 100 nM each time.

`CCN(c1nc(OC[C@@]23CCCN2C[C@H](F)C3)nc2c(F)c(-c3ccc(F)c4sc(N)c(C#N)c34)c(C(F)(F)F)cc12)[C@H]1CC(=O)N(CC(F)F)C1` [Compound 549]: the IC50 in assay [1] is < 100 nM; in assay [2], 100 to 1000 nM; in assay [3], 100 to 1000 nM; in assay [4], 100 to 1000 nM; in the assay with GP2d cells (KRAS G12D) it was < 100 nM; in the assay with SW620 cells (KRAS G12V), < 100 nM.

On to `CCN(c1nc(OC[C@@]23CCCN2C[C@H](F)C3)nc2c(F)c(-c3ccc(F)c4sc(N)c(C#N)c34)c(C(F)(F)F)cc12)[C@H]1CCN(C(=O)C2(C#N)CC2)C1` [Compound 560], for which the IC50 (in assay [1]; in assay [2]; in assay [3]; in assay [4]; with GP2d cells (KRAS G12D); with SW620 cells (KRAS G12V)) was < 100 nM each time.

Take `C[C@@H]1[C@H](N(C)c2nc(OC[C@]34C[C@@H](F)CN3CC3(CC3)C4)nc3c(F)c(-c4ccc(F)c5sc(N)c(C#N)c45)c(C(F)(F)F)cc23)CCN1C(=O)C1CC1` [Compound 564]: the IC50 in assay [1] was 100 to 1000 nM; in assay [2] it was 100 to 1000 nM; in assay [3], 1000 to 10000 nM; in assay [4], 100 to 1000 nM; in the assay with GP2d cells (KRAS G12D), < 100 nM; in the assay on SW620 cells (KRAS G12V) it was < 100 nM.

On to `[2H]C1([2H])CN2C[C@H](F)C[C@]2(COc2nc(N(CC)[C@H]3CCN(C(=O)C(C)C)C3)c3cc(C(F)(F)F)c(-c4ccc(F)c5sc(N)c(C#N)c45)c(F)c3n2)C1` [Compound 565], for which the IC50 was < 100 nM in assay [1]; < 100 nM in assay [2]; 100 to 1000 nM in assay [3]; 100 to 1000 nM in assay [4]; < 100 nM in the assay on GP2d cells (KRAS G12D); < 100 nM in the assay on SW620 cells (KRAS G12V).
